Laboratory results taken from patent US9060529B2, “Method for treatment of lacto-N-biose-containing solution” (Morinaga Milk Industry Co., Ltd., priority 2010, dated 2015).

Key:
[1] = Test Example 2: effect of heating temperature and time on stability of LNB in neutral liquid composition (TLC); assay type: physicochemical; settings: pH 7.0; 90° C. for 0-60 minutes or 65-88° C. for 60 minutes
Procedure: The LNB powder prepared in the above Production Example 1 was dissolved at a concentration of 2% in a 0.1 M phosphate buffer of pH 7.0 to prepare a sample (liquid composition containing LNB).
5 mL samples of the prepared sample were dispensed into test tubes, which were heated at 90° C. for 0, 10, 20, 30, 40, 50 or 60 minutes, or heated at 65, 67, 70, 75, 80, 85 or 88° C. for 60 minutes.
Each of the heated samples was cooled to 15° C., and the same method as that described for Test Example 1 was used to determine whether or not decomposition had occurred, and if so, the extent of that decomposition.

[2] = Examples 1-3: TLC analysis of heated liquid preparations containing LNB; assay type: physicochemical
Procedure: Each of the heated samples was cooled to 15° C., and 1 μL was then spotted onto a silica gel thin layer chromatography (TLC) plate. The plate was developed using an 80% acetonitrile solvent, and was then immersed in a 5% sulfuric acid solution and colorized by heating in an oven. The existence or absence of decomposed or denatured products (N-acetylglucosamine dehydrate and galactose) and the amount of those decomposed or denatured products were evaluated visually to determine whether or not decomposition had occurred, and if so, the extent of that decomposition.
100 g of the LNB powder prepared in the above Production Example 1 was dissolved in 9.9 kg of purified water, and 0.1 M hydrochloric acid was added to the solution to adjust the pH to 4.5. The resulting aqueous solution was preheated for 3 minutes at 70° C. using a UHT sterilizer (manufactured by Morinaga Engineering Co., Ltd.), subsequently sterilized at 130° C. for 2 seconds, and then cooled to 15° C., yielding 10 kg of a liquid preparation containing LNB.
100 g of the LNB powder prepared in the above Production Example 1 was added to 9.9 kg of a commercially available orange juice (manufactured by Morinaga Milk Industry Co., Ltd.), and the resulting mixture was heated at 80° C. for 15 minutes and then cooled to 15° C. 100 mL aliquots of the juice were used to fill glass bottles, which were then sealed, yielding 100 bottles of orange juice containing LNB.
100 g of the LNB powder prepared in the above Production Example 1 was dissolved in 9.9 kg of purified water, and 0.1 M citric acid was added to the solution to adjust the pH to 5.0. The resulting aqueous solution was heated at 90° C. for 30 minutes, and then cooled to 15° C., yielding 10 kg of a liquid preparation containing LNB.

decomposition of LNB (TLC) ([2]; Example 1: aqueous solution pH 4.5, 70° C. for 3 minutes, then 130° C. for 2 seconds): had not decomposed
decomposition of LNB (TLC) ([2]; Example 2: orange juice pH 4.51, 80° C. for 15 minutes): had not decomposed
decomposition of LNB (TLC) ([2]; Example 3: aqueous solution pH 5.0 (citric acid), 90° C. for 30 minutes): had not decomposed
Structure (SMILES): CC(=O)N[C@H]1C(O)O[C@H](CO)[C@@H](O)[C@@H]1O[C@@H]1O[C@H](CO)[C@H](O)[C@H](O)[C@H]1O (stereo partly shown) [LNB, Lacto-N-biose]
stability of LNB (decomposition by TLC) [1]: decomposed or denatured products were detected under all of the different heat treatment conditions
